Measured values from patent publication US10472366B2, “Glucuronide prodrugs of tofacitinib” (THERAVANCE BIOPHARMA R&D IP, LLC, priority 2017, dated 2019).
“And” between values parts separate entries of the source, which are not always exact repeats. Equal values may be shown once.

Assays:
[1] = tested on: β-glucuronidase in rat colon feces; assay: Rat colon fecal homogenate stability assay; assay type: in vitro ADME; details: in vitro half-life in rat fecal supernatant-homogenate, anaerobic, 10 μM substrate, individual values when assay repeated; for half-life at 10 μM: male, rat, rat colon fecal supernatant-homogenate, read-out: T½
Description: The compounds of the present invention contain a glucuronide prodrug moiety that is expected to be cleaved by β-glucuronidase enzyme. The objective of this assay was to determine the half-life for compounds of the present invention in the presence of β-glucuronidase in rat colon feces.
Following sacrifice of a naïve male rat (˜300 g) by cardiac puncture exsanguination, the colon was ligated and removed to an anaerobic chamber (AS-580, Anaerobe Systems). The fecal content was removed within the chamber and was diluted 1:10 with phosphate buffer (1 gram fecal content to 9 mL phosphate buffer) and the resulting mixture was homogenized using a handheld Omni Tissue Master. The fecal homogenate was centrifuged at 2000 g for 10 min to remove bulk material and the supernatant was removed and used for the incubations.
DMSO stock solutions (10 mM) of the test compounds and sulfasalazine (control) were prepared. Sulfasalazine was used as a positive control to confirm viability of the fecal supernatant-homogenate (see, e.g., Azad Khan et al., Clinical Science (1983) 64, 349-354). If the in vitro half-life (T½) for sulfasalazine in the fecal sample was less than 30 min, the fecal sample was deemed to be viable and in true anaerobic conditions. However, if the T½ for sulfasalazine was greater than 30 min, the fecal sample was typically contaminated with oxygen and was not viable. The final substrate concentration of each assay was 10 μM. Reactions were started by adding a 5 μL aliquot of diluted test compound stock solution into 300 μL of rat fecal supernatant-homogenate. At 0, 15, 30, 60, 90, and 120 min post reaction initiation, a 50 μL aliquot was removed and added to a mixture of 200 μL of acetonitrile with 3% formic acid and an internal standard. All samples were centrifuged at 2000 g for 10 min after which 50 μL of supernatant was diluted into 150 μL of water for analysis on an LC-MS system. In vitro half-lives (T½) for the test compounds were calculated as follows: T½=0.693/elimination rate constant. When the assay was performed more than once, individual values are reported.

[2] = Oral pharmacokinetics in mouse assay; assay type: in vivo; details: liberated tofacitinib AUC0-6 h in colon tissue; male Balb/c mice, single PO dose 5 mg/kg of test compound
Description: When cleaved by β-glucuronidase enzyme, the compounds of the present invention release tofacitinib. The object of this assay was to determine tofacitinib exposure (AUC0-6 h) in colon tissue and plasma following oral dosing of compounds of the present invention in mice.
Male Balb/c mice (n=2/time point) received a single PO oral gavage dose (5 mg/kg in 1:20 mixture of 5% DMSO and 1% HPMC) of the test compound. At 2 h and 6 h post-dosing, mice were sacrificed via cardiac puncture exsanguination and blood samples were taken and placed into sample tubes (Microtainer, Becton, Dickinson and Company) containing sodium fluoride and then placed on ice. Plasma was obtained by centrifugation (Eppendorf centrifuge, 5804R) for 4 min at approximately 12,000 rpm at 4° C.
The colons were removed from the exsanguinated mice and the colon fecal contents were gently removed. The colons were flushed with saline and patted dry. […]
The concentration of tofacitinib in each sample was determined as follows: the plasma and colon homogenate samples were vortexed, combined with a 50 μL aliquot of rat plasma, extracted with 200 μL of ACN containing an internal standard and quantified against the internal standard by LC-MS. An area-under-the-concentration curve (AUC0-6 h) was calculated for plasma and colon test compound and liberated tofacitinib. […]

[3] = tested on: oxazolone-induced colitis; assay: Mouse model of oxazolone-induced colitis; assay type: in vivo; details: PO, BID, BALB/C mice, vs vehicle/oxazolone, p<0.05
Description: Oxazolone-induced colitis is an experimental model that has a histological resemblance to human ulcerative colitis (Heller et al. […], 2002, 17, 629-638). Adult BALB/C mice (25-28 g, 9-12 weeks of age) from BioNeeds (India) were used in the assay. On Day 1, animals were lightly anesthetized with isoflurane and the hairs between the shoulder were carefully removed. Oxazolone (6 mg/mouse, 100 μL, 4:1 acetone:olive oil formulation) or vehicle solution was slowly applied to the bare skin patch to induce skin sensitization. Six days after skin sensitization, the mice were fasted overnight and then anesthetized with ketamine and xylazine administered intraperitoneally. A 1 mL syringe filled with oxazolone solution (0.5 mg/50 μL/mouse in 50% ethanol) or 50% ethanol/saline was inserted carefully ˜3.8 cm into the colon of the mouse. Animals were kept in a head down position and oxazolone or vehicle solution was rectally instilled very slowly over a minute. The mice were held vertically (head down) for another minute to ensure that the entire oxazolone or vehicle solution remained inside the colon. Test compound treatment (PO, BID or TID) or vehicle was initiated the evening prior to the oxazolone intrarectal (IR) challenge. On both first (Day 1) and second (Day 2) days post-oxazolone IR challenge, the Disease Activity Index (DAI) was assessed by treatment-blinded experimenters for each mouse, according to the following subscores: stool consistency (0, normal; 2, loose; 4, diarrhea), gross bleeding and hemoccult test (0, absence; 2, blood tinged; 4, overt blood presence), and weight loss (0, none; 1, 1%-5%; 2, 6^%-10%; 3, 11%-15%; 4, more than 15%); DAI=average of (stool consistency+blood presence+weight loss scores).
An area-under-the-curve (AUC) calculation based on total DAI scores was performed to track disease progression during the course of the experiment. AUC for each experimental group was calculated as: AUC=[(Day 1−Day 0)*Average (DAI Score of Day 0 & Day 1)]+[(Day 2−Day 1)*Average (DAI Score of Day 1 & Day 2)]. A Student's t-test compared the DAI AUC score of the vehicle/vehicle and vehicle/oxazolone groups to evaluate whether disease was induced following oxazolone treatment. This was followed by a one-way analysis of variance (ANOVA), with Dunnett's post hoc test, to compare the DAI AUC score of the vehicle/oxazolone and test compound/oxazolone groups. Statistical significance was defined by an α level set at p<0.05.

[4] = Oral pharmacokinetics in rat assay; assay type: in vivo; details: liberated tofacitinib AUC0-6 h in colon tissue; male Sprague Dawley rats, single PO dose 5 mg/kg of test compound
Description: When cleaved by β-glucuronidase enzyme, the compounds of the present invention release tofacitinib. The object of this assay was to determine tofacitinib exposure (AUC0-6 h) in colon tissue and plasma following oral dosing of compounds of the present invention in rats.
Male Sprague Dawley rats (n=2/time point) received a single PO oral gavage dose (5 mg/kg in 1:20 mixture of 5% DMSO and 1% HPMC) of test compounds. At 0.5, 1, 3, 6 and 24 h post-dosing, rats were sacrificed via cardiac puncture exsanguination, and blood samples were taken and placed into sample tubes (Microtainer, Becton, Dickinson and Company) containing sodium fluoride and then placed on ice. Plasma was obtained by centrifugation (Eppendorf centrifuge, 5804R) for 4 minutes at approximately 12,000 rpm at 4° C.
The colons were removed from exsanguinated rats and the colon contents gently removed. The colons were flushed with saline and patted dry. The colons were then homogenized in 3× the weight of sterile water using a tissue homogenizer (Precellys homogenizer, Bertin Instruments) at approximately 4° C. All samples were stored at −80° C. for later bioanalysis.
The concentration of tofacitinib in each sample was determined as follows: the plasma and colon samples were vortexed, combined with a 50 μL aliquot of rat plasma, extracted with 200 μL of ACN containing an internal standard and quantified against the internal standard by LC-MS. An area-under-the-concentration curve (AUC0-6 h) was calculated for plasma and colon test compound and liberated tofacitinib. A key parameter to assess suitability for localized delivery of tofacitinib to the colon was the tofacitinib colon to plasma AUC ratio.

Compound	half-life at 10 μM [1] [min]	Colon AUC [2] [µg·h/g]	reversal of oxazolone-induced colitis (DAI AUC score) ([3]; 30 mg/kg)	T½ [1]	Colon AUC [4] [µg·h/g]	reversal of oxazolone-induced colitis (DAI AUC score) ([3]; 3 and 30 mg/kg)
C[C@@H]1CCN(C(=O)CC#N)C[C@@H]1N(C)c1ncnc2c1ccn2C(=O)N(C)c1cc([N+](=O)[O-])ccc1O[C@@H]1O[C@H](C(=O)O)[C@@H](O)[C@H](O)[C@H]1O [Compound III-1, (2S,3S,4S,5R,6S)-6-(2-(4-(((3R,4R)-1-(2-Cyanoacetyl)-4-methylpiperidin-3-yl)(methyl)amino)-N-methyl-7H-pyrrolo[2,3-d]pyrimidine-7-carboxamido)-4-nitrophenoxy)-3,4,5-trihydroxytetrahydro-2H-pyran-2-carboxylic Acid]	2	6.07	statistically significant reversal	–	–	–
C[C@@H]1CCN(C(=O)CC#N)C[C@@H]1N(C)c1ncnc2c1ccn2C(=O)N(C)CCN(C)C(=O)O[C@@H]1O[C@H](C(=O)O)[C@@H](O)[C@H](O)[C@H]1O [Compound II-1, (2S,3S,4S,5R,6S)-6-(((2-(4-(((3R,4R)-1-(2-Cyanoacetyl)-4-methylpiperidin-3-yl)(methyl)amino)-N-methyl-7H-pyrrolo[2,3-d]pyrimidine-7-carboxamido)ethyl)(methyl)carbamoyl)oxy)-3,4,5-trihydroxytetrahydro-2H-pyran-2-carboxylic Acid]	14	–	–	16 min and < 15 min	20.2	statistically significant reversal
